According to patent publication US8691528B2, “Cell penetrating peptide” (Mitsubishi Tanabe Pharma Corporation, priority 2005, dated 2014):
Entries after “also recorded” stand apart in the source; their conditions may differ.

System: CHO cells
Test: Test of translocation of fluorescence-labeled peptides into CHO cells (FACS and confocal microscopic analysis)
Assay type: cell-based
Conditions: for intracellular translocation compared with KSH1-1 (in words) / intracellular translocation compared with KSH1 (in words): 50 μM, 25 μM, 12.5 μM and 6.5 μM; for contribution of the alanine-substituted amino acid to the intracellular translocation: comprehensive alanine substitution on the basis of KSH1-1
Experimental: Each peptide solution, adjusted to 1 mM, was diluted with a medium to three levels, 100 μM, 50 μM, and 25 μM, and added to cells. Three kinds of cells were used: CHO cells, HeLa cells, and Jurkat cells. After each peptide solution was added, the cells were incubated for 1 hour. After the cells were washed with PBS three times, 100 μL of 0.25% trypsin-1 mM EDTA solution was added, and trypsinization was performed at room temperature for 5 minutes. After 400 μL of PBS (10% FCS) was added to stop the trypsinization, the cells were washed with 1 mL of HBSS three times. After the washing, the cells were suspended in 500 μL of PBS (10% FCS) and subjected to flowcytometry (hereinafter, FACS) analysis using FACS Calibur (Becton Dickinson).
Each peptide was synthesized, fluorescently labeled, purified and dissolved in the same manner as Example 1-2, a test of translocation into CHO cells was performed, and an evaluation was performed by confocal microscopic analysis and FACS. FACS analysis was performed in the same manner as Example 1-3. For the KSH1 peptide and modified PTD sequences, i.e., KSH1-1 to KSH1-9 peptides (SEQ ID NOS:1 to 9 in the sequence listing), fluorescence intensities determined by FACS analysis are shown in FIG. 6. The peptide addition concentrations were 50 μM, 25 μM, 12.5 μM and 6.5 μM.
To determine which amino acids are important to the intracellular translocation, comprehensive alanine substitution was performed on the basis of KSH1-1 to design KSH1-11 (SEQ ID NO:11 in the sequence listing) to KSH1-23 (SEQ ID NO:22 in the sequence listing) and KSH1-35 (SEQ ID NO:32 in the sequence listing) (FIG. 7). Each peptide was synthesized, fluorescently labeled, purified and dissolved in the same manner as Example 1-2, a test of translocation into CHO cells was performed, and an evaluation was performed by confocal microscopic analysis and FACS. FACS analysis was performed in the same manner as Example 1-3. For KSH1 and modified PTD sequences, i.e., KSH11-11 to 23 and KSH1-35, fluorescence intensities determined by FACS analysis are shown in FIG. 8. The peptide addition concentrations were 50 μM, 25 μM, 12.5 μM and 6.5 μM.
(§1) Each peptide was synthesized, fluorescently labeled, purified and dissolved in the same manner as Example 1-2, a test of translocation into CHO cells was performed, and an evaluation was performed by confocal microscopic analysis and FACS analysis. FACS analysis was performed in the same manner as Example 1-3. For KSH1 and modified PTD sequences, i.e., KSH11-24 to 1-26 and KSH1-28 to 1-30, fluorescence intensities determined by FACS analysis are shown in FIG. 10. The peptide addition concentrations were 50 μM, 25 μM, 12.5 μM and 6.5 μM.
as §1, with “KSH1-27, KSH1-33, KSH1-34” for “KSH11-24 to 1-26”, “KSH1-36,” for “KSH1-28 to 1-30,”, “12.” for “10.”
Each peptide was synthesized, fluorescently labeled, purified and dissolved in the same manner as Example 1-2, and an intracellular translocation test in CHO cells was performed by FACS analysis. Used for positive control were a PTD sequence derived from HIV TAT ([…] in the sequence listing) and the KSH1 peptide; used for negative control was a peptide sequence lacking intracellular transferability (SEQ ID NO:57 in the sequence listing).

## KSH1-34: 14th tyrosine in the vicinity of the 3rd tryptophan substituted with arginine (RLWMRWYSPTTRARG; Designed peptide to act as PTD(Protein Transduction Domain))
  intracellular translocation compared with KSH1-1 (in words): decreased considerably

## KSH1-23: alanine substitution form of KSH1-1 (RLWMRWYSPTTRRAG; Designed peptide to act as PTD(Protein Transduction Domain))
  contribution of the alanine-substituted amino acid to the intracellular translocation: minor contribution

## KSH1-22: alanine substitution form of KSH1-1 (an arginine substituted) (RLWMRWYSPTTARYG; Designed peptide to act as PTD(Protein Transduction Domain))
  intracellular translocation compared with KSH1-1 (in words): decreased

## KSH1-15: alanine substitution form of KSH1-1 (an arginine substituted) (RLWMAWYSPTTRRYG; Designed peptide to act as PTD(Protein Transduction Domain))
  intracellular translocation compared with KSH1-1 (in words): decreased

## KSH1-3: KSH1 with the 13th arginine substituted with alanine (KLWMRWYSPTTRAYG; Designed peptide to act as PTD(Protein Transduction Domain))
  intracellular translocation compared with KSH1 (in words): decreased remarkably; also recorded: became observable very little
Detected only at this concentration
  concentration at which intracellular translocation was detected: 50 µM

## KSH1-35: alanine substitution form of KSH1-1 (RLWMRWYSPTTRRYA; Designed peptide to act as PTD(Protein Transduction Domain))
  contribution of the alanine-substituted amino acid to the intracellular translocation: minor contribution

## KSH1-19: alanine substitution form of KSH1-1 (RLWMRWYSGTTRRYG; Designed peptide to act as PTD(Protein Transduction Domain))
  contribution of the alanine-substituted amino acid to the intracellular translocation: minor contribution

## KSH1-2: KSH1 with proline substituted with alanine (KLWMRWYSATTRRYG; Designed peptide to act as PTD(Protein Transduction Domain))
  intracellular translocation compared with KSH1 (in words): no influence on the intracellular transferability was observed

## KSH1-4: modified KSH1 with three tryptophans uniformly arranged on the wheel structure (KLWMRWWSPTTRRYG; Designed peptide to act as PTD(Protein Transduction Domain))
  intracellular translocation compared with KSH1 (in words): did not change

## KSH1-11: KSH1-1 with the 1st arginine substituted with alanine (ALWMRWYSPTTRRYG; Designed peptide to act as PTD(Protein Transduction Domain))
  intracellular translocation compared with KSH1-1 (in words): did not decrease a lot
  contribution of the alanine-substituted amino acid to the intracellular translocation: minor contribution

## KSH1-27: serine and threonine all substituted with alanine (RLWMRWYAPAARRYG; Designed peptide to act as PTD(Protein Transduction Domain))
  intracellular translocation compared with KSH1-1 (in words): decreased slightly
At low concentrations
  translocation compared with KSH1-1 (in words): nearly the same

## KSH1-30: two tryptophans substituted with tyrosine (RLYMRYYSPTTRRYG; Designed peptide to act as PTD(Protein Transduction Domain))
  intracellular translocation compared with KSH1-1 (in words): good intracellular translocation was exhibited; also recorded: good results

## KSH1-17: KSH1-1 with the 7th tyrosine substituted with alanine (RLWMRWASPTTRRYG; Designed peptide to act as PTD(Protein Transduction Domain))
  intracellular translocation compared with KSH1-1 (in words): almost no intracellular translocation was observed
